# Test results taken from patent US20070078170A1, “Process for the preparation of pioglitazone” (priority 2003, published 2007).
# How the values were obtained:
# [1] = Solubility studies in USPII dissolution apparatus; type: physicochemical
# Protocol: Solubility experiments were performed in USPII dissolution apparatus operated at 150 r.p.m., at 25° C., in the following media: 250 ml of 0.01N HC1-0.3M KCI (pH 2)
# Procedure: 625 mg of pioglitazone hydrochloride was added in 250 ml of media and solubility was determined at given time points.
# [2] = Clarity of solution in acidic media on standing; type: physicochemical
# [3] = 1.5 hrs, 625 mg in 250 ml of 0.01N HCl-0.3M KCl (pH 2), 25° C., 150 r.p.m., average of six unit data, Hydrochloride
# [4] = 5 hrs, 625 mg in 250 ml of 0.01N HCl-0.3M KCl (pH 2), 25° C., 150 r.p.m., average of six unit data, Hydrochloride
# [5] = 20 hrs, 625 mg in 250 ml of 0.01N HCl-0.3M KCl (pH 2), 25° C., 150 r.p.m., average of six unit data, Hydrochloride
# [6] = 0.01N HCl-0.3M KCl media (pH 2)
Substance,"Solubility [1, 3] [µg/mL]","Solubility [1, 4] [µg/mL]","Solubility [1, 5] [µg/mL]",also measured
Pioglitazone Hydrochloride [Example 4],2265,722,473,"Observation of the media (turbidity, precipitation) ([1]; 0.01N HCl-0.3M KCl (pH 2), later time points): the media starts becoming turbid and shows drug precipitation on later time points"
Pioglitazone Hydrochloride [Example 5],2587,2766,2747,"Solubility [1, 6]: more than 2.4 mg/ml; Standing time without precipitation from the solution [1, 6]: more than 5 hours; Solubility ([1]; 30 min, 625 mg in 250 ml of 0.01N HCl-0.3M KCl (pH 2), 25° C., 150 r.p.m., average of six unit data): 2719 µg/mL"
pioglitazone hydrochloride [listing 1 of 2 here],,,,Standing time over which the solution remains clear [2]: ≥ 20 h
pioglitazone hydrochloride [listing 2 of 2 here],,,,Standing time after which the solution becomes turbid and the drug precipitates ([2]; initially clear solution): 4 to 5 h
